Reference: ChEMBL document CHEMBL1152560, “Substituted 2-arylbenzothiazoles as kinase inhibitors: hit-to-lead optimization” (Bioorg Med Chem, 2009)

Tests used:
[1] = target: Mitogen-activated protein kinase 11 (Homo sapiens) (UniProt Q15759); assay: Residual activity of p38beta at 10 uM by microplate scintillation counting
[2] = target: Vascular endothelial growth factor receptor 2 (Homo sapiens, UniProt P35968); assay: Residual activity of VEGFR2 at 10 uM by microplate scintillation counting
[3] = target: Interferon-induced, double-stranded RNA-activated protein kinase (Homo sapiens) (UniProt P19525); assay: Residual activity of EIF2AK2 at 10 uM by microplate scintillation counting
Chain of Interferon-induced, double-stranded RNA-activated protein kinase (Homo sapiens) (P19525 whole entry): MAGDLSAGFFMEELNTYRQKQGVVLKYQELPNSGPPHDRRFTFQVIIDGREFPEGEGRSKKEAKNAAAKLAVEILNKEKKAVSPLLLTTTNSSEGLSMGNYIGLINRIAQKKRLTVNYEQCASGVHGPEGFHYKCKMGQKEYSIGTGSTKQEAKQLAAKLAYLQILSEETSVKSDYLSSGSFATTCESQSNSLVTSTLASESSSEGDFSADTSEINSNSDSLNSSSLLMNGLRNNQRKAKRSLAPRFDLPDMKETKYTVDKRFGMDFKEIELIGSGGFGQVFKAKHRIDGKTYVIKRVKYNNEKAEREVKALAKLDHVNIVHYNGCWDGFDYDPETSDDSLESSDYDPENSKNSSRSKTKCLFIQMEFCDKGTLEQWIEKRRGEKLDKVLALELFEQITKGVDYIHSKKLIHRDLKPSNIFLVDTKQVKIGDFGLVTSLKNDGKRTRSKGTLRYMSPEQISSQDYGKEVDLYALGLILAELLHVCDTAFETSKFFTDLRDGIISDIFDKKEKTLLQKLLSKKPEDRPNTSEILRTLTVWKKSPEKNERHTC

Aurora kinase B = Aurora kinase B (Homo sapiens, UniProt Q96GD4); assay: Residual activity of Aurora-B at 1 uM by microplate scintillation counting
Chain of Aurora kinase B (Q96GD4 whole entry): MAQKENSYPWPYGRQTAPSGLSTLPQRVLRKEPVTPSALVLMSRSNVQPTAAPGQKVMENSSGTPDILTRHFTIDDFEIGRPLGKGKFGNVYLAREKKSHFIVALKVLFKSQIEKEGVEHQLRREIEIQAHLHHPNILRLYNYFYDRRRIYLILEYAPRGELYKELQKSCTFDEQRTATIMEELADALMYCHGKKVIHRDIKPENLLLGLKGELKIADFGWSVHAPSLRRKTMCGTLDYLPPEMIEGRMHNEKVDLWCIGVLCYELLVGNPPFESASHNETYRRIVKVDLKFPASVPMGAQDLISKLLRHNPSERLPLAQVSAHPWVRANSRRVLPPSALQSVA

[4] = target: Fibroblast growth factor receptor 3 (Homo sapiens) (UniProt P22607); assay: Residual activity of FGFR3 at 1 uM by microplate scintillation counting
Chain of Fibroblast growth factor receptor 3 (Homo sapiens) (P22607 23-806 limits assumed): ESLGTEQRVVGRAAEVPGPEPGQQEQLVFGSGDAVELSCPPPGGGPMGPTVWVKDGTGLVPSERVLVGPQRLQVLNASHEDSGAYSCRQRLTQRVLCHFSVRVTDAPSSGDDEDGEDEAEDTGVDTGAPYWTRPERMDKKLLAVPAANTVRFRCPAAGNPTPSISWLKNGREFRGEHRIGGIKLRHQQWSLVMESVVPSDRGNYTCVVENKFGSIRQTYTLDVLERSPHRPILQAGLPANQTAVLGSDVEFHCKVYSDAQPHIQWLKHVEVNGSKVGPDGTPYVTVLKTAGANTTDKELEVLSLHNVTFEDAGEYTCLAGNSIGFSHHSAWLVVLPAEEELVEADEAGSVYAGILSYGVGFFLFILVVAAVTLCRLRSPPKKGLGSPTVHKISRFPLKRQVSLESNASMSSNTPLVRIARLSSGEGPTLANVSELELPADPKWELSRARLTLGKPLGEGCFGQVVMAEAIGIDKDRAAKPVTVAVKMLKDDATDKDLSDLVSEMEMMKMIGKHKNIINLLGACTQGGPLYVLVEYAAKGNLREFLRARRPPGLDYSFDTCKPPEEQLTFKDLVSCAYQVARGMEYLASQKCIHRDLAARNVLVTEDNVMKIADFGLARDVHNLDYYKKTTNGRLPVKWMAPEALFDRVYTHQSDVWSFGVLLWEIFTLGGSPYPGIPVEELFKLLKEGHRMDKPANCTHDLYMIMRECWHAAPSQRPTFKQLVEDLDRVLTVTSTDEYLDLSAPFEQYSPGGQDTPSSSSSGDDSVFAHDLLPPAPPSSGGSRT

[5] = target: T1, Beta-adrenergic receptor kinase 1 (Homo sapiens) (UniProt P25098); assay: Residual activity of GRK2 at 0.1 uM by microplate scintillation counting
T1 sequence (whole entry): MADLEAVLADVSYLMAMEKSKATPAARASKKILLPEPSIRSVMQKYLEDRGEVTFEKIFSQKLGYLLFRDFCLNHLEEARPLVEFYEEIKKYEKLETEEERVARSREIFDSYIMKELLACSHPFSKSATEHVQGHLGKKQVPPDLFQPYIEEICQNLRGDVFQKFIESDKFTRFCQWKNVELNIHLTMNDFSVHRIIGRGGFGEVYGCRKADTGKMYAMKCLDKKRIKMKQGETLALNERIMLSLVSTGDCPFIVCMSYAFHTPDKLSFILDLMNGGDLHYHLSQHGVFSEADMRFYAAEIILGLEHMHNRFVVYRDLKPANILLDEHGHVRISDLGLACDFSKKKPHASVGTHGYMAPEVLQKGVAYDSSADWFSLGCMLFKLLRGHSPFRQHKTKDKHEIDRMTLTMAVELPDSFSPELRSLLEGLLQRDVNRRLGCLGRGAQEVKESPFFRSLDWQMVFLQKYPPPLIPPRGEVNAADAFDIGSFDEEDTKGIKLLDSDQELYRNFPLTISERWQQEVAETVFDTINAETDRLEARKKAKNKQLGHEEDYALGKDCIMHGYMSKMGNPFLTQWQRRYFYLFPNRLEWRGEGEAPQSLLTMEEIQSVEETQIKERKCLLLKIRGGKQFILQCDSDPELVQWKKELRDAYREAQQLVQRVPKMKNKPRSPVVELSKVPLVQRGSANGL

[6] = target: Mast/stem cell growth factor receptor Kit (Homo sapiens) (UniProt P10721); assay: Residual activity of wild type KIT at 10 uM by microplate scintillation counting
Chain of Mast/stem cell growth factor receptor Kit (Homo sapiens) (P10721 whole entry): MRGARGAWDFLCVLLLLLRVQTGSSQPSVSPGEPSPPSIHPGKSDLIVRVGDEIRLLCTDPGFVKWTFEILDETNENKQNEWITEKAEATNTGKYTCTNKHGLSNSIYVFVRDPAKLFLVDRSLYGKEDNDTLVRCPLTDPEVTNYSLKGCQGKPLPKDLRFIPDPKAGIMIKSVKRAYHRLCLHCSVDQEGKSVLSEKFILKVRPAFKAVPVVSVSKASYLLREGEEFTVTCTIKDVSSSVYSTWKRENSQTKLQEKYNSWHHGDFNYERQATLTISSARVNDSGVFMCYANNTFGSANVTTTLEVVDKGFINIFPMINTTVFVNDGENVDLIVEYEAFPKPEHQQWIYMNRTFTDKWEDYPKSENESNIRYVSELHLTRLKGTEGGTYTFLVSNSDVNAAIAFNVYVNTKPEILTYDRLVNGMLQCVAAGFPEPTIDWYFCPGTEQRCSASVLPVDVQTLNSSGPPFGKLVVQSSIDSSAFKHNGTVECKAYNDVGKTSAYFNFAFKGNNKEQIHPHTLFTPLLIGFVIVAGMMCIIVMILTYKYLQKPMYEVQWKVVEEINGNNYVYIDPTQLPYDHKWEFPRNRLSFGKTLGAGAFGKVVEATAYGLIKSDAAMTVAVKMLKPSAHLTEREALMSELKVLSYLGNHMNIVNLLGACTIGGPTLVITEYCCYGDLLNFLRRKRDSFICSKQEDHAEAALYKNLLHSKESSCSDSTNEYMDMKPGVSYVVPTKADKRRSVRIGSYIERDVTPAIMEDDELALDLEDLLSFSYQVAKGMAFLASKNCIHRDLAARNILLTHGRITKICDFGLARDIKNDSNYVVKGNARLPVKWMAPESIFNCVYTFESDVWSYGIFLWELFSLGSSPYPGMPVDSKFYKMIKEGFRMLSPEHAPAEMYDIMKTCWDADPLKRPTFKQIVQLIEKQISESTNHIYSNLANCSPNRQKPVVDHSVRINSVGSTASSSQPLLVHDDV

[7] = target: T2, Serine/threonine-protein kinase Sgk3 (Homo sapiens) (UniProt Q96BR1); assay: Residual activity of SGK3 at 0.1 uM by microplate scintillation counting
T2 sequence (whole entry): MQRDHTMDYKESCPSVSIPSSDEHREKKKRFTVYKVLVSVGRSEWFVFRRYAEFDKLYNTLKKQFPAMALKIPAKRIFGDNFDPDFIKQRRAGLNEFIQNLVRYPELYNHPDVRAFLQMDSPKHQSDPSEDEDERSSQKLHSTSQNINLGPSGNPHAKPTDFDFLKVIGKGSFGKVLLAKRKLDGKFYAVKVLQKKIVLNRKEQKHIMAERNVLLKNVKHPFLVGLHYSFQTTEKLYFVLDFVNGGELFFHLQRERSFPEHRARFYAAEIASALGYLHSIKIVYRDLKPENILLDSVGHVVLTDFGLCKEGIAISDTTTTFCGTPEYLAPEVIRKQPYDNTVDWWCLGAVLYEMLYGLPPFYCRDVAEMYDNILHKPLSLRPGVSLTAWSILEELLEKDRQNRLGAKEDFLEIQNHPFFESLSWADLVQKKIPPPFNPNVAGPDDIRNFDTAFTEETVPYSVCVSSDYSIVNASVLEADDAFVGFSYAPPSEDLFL

[8] = test system: Epidermal growth factor receptor (Homo sapiens), P00533 [L858R]; assay: Residual activity of EGFR L858R mutant at 10 uM by microplate scintillation counting
[9] = target: T3, Tyrosine-protein kinase ZAP-70 (Homo sapiens) (UniProt P43403); assay: Residual activity of ZAP70 at 1 uM by microplate scintillation counting
T3 sequence (whole entry): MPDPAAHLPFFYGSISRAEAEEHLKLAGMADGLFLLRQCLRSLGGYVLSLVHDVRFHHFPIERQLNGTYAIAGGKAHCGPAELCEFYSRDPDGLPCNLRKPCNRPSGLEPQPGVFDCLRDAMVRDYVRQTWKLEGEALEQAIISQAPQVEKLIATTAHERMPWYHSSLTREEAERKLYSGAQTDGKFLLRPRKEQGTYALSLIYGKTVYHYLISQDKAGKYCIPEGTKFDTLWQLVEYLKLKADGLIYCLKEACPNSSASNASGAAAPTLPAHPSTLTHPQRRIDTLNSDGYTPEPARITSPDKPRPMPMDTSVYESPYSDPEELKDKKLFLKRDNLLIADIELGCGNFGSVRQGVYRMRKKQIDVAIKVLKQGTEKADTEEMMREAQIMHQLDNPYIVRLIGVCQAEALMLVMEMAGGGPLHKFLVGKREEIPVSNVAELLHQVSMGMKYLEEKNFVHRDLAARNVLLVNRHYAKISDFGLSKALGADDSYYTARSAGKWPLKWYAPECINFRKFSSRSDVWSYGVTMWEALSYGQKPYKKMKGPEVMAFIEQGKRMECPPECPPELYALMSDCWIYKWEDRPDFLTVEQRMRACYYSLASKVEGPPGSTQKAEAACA

[10] = target: T4, Aurora kinase C (Homo sapiens) (UniProt Q9UQB9); assay: Residual activity of Aurora-C at 1 uM by microplate scintillation counting
T4 sequence (whole entry): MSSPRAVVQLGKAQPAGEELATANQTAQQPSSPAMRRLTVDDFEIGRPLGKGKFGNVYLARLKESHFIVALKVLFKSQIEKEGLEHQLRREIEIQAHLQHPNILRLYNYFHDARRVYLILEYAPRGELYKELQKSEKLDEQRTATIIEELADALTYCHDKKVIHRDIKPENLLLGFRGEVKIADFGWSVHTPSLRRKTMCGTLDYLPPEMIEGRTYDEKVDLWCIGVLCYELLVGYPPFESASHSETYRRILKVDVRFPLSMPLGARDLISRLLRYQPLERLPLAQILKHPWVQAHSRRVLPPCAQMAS

[11] = target: T1, Beta-adrenergic receptor kinase 1 (Homo sapiens); assay: Residual activity of GRK2 at 10 uM by microplate scintillation counting

Chain of Mitogen-activated protein kinase 11 (Homo sapiens) (Q15759 whole entry): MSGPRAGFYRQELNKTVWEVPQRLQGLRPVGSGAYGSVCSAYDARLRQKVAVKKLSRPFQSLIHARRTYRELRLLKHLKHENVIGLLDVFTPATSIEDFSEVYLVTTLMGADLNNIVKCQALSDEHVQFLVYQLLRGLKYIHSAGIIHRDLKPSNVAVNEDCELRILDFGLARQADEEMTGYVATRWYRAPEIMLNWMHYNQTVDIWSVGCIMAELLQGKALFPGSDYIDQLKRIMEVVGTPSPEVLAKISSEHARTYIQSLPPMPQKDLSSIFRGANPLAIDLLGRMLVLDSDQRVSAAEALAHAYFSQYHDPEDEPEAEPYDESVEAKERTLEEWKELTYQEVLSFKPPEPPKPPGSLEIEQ
Chain of Vascular endothelial growth factor receptor 2 (P35968 whole entry): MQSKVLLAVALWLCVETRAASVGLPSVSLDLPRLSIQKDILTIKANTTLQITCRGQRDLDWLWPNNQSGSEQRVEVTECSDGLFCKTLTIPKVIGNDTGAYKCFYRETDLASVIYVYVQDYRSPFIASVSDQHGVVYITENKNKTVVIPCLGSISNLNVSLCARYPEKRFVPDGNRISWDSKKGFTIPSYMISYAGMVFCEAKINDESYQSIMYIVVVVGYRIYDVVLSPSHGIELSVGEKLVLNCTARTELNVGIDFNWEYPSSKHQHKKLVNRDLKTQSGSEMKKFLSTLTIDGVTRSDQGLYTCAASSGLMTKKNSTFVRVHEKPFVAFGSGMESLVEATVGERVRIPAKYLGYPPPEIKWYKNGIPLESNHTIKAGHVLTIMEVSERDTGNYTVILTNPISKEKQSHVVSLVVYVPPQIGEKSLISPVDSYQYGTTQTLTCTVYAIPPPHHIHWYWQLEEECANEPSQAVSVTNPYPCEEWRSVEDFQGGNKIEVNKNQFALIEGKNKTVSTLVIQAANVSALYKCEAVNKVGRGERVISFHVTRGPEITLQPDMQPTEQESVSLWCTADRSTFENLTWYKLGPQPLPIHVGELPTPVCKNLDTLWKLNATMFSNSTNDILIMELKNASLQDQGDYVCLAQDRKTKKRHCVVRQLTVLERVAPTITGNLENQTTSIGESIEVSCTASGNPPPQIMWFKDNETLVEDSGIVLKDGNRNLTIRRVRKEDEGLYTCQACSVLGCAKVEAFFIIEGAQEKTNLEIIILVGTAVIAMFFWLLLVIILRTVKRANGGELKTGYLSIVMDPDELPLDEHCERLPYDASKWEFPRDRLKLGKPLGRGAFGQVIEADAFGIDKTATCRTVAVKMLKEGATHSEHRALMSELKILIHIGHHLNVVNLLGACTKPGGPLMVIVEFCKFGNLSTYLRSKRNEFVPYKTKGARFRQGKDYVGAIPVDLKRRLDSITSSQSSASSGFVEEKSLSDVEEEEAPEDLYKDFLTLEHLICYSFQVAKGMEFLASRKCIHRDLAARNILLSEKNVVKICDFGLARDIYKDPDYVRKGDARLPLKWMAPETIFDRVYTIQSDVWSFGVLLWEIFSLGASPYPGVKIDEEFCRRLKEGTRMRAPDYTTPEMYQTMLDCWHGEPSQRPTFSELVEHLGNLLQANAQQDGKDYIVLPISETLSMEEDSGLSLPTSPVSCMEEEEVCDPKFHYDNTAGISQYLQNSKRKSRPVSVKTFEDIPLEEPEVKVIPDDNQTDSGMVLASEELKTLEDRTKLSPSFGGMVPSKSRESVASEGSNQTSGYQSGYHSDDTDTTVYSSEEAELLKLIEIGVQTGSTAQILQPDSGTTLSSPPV

Row | residual activity [1] [%] | residual activity [2] [%] | residual activity [3] [%] | residual activity (Aurora kinase B) [%] | residual activity [4] [%] | residual activity [5] [%] | residual activity [6] [%] | residual activity [7] [%] | residual activity [8] [%] | residual activity [9] [%] | residual activity [10] [%] | residual activity [11] [%] | SMILES
1 | 337 | 5 | 27 | 24 | 98 | 95 | 31 | 114 | 46 | 145 | 7 | 73 | COc1cc2c(Oc3ccc(-c4nc5ccccc5s4)cc3)ncnc2cc1OCCCN1CCCC1
2 | 350 | 6 | 21 | 18 | 90 | 95 | 30 | 91 | 22 | 116 | 11 | 58 | COc1cc2c(Oc3ccc(-c4nc5ccccc5s4)cc3)ncnc2cc1OCCCN1CCN(C)CC1
3 | 337 | 5 | 28 | 20 | 88 | 89 | 32 | 104 | 24 | 120 | 10 | 53 | COc1cc2c(Oc3ccc(-c4nc5ccccc5s4)cc3F)ncnc2cc1OCCCN1CCN(C)CC1
